Laboratory results: patent US8440718B2, “Modulation of inflammation related to columnar epithelia” (The Brigham and Women's Hospital, Inc., priority 1991, dated 2013)

Tests used:
[1] = test system: T84 intestinal epithelial cells; test: fMLP-induced PMN migration after LXA4 exposure of T84 epithelial monolayers; format: cell-based, human
Experimental: Lipoxins Synthetic LXA4, LXB4, and 11-trans-LXA4 were obtained from Cascade Biochem Ltd. (Berkshire, United Kingdom). Concentrations were determined from extinction coefficients as described in Sheppard K-A., et al. (1992). Biochimica et Biophysica Acta 1133: 223-234. All eicosanoid stock solutions were stored at −70° C. in […] (American Scientific Products). Eicosanoids were diluted in modified HBSS to a concentration of 1 μM prior to all experiments. PMN or T84 monolayers were exposed to lipoxins at indicated concentrations and allowed to incubate at 37° C. for the indicated period of time. Vehicle controls consisted of dilutions of the solvent (ethanol) equivalent to the highest concentration of lipoxin used in any given experiment (0.01%). […]
Migration was quantitated by assaying for the PMN azurophilic granule marker myeloperoxidase (MPO) as described previously (Parkos C. A., et al. (1991). J. Clin. Invest 88: 1605-1612). Following each migration assay, non-adherent PMN were extensively washed from the surface of the monolayer and PMN cell equivalents (PMN CE), estimated from a standard curve, were assessed as the number of PMN's associated with the monolayer, the number which had completely traversed the monolayer (ie. across the monolayer into the reservoir bath), as well as the total number of transmigrating PMN (the sum of monolayer and reservoir-associated PMN). […]

[2] = test system: human PMN migration across T84 epithelial monolayers; test: PMN chemotactic capacity toward LXA4 placed in lower chamber, apical-to-basolateral; format: cell-based; details: compared to 1 μM fMLP
Experimental: Migration assay: The PMN transepithelial migration assay has been detailed in Nash S., et al. (1987). J. Clin. Invest. 80: 1104-1113; Nash S., et al. (1991). J. Clin. Invest 87: 1474-1477); Parkos C. A., et al. (1991). J. Clin. Invest. 88: 1605-1612); and Parkos C. A., et al. (1992). J. Cell. Biol. 117: 757-764. Briefly, human PMN were isolated from normal human volunteers and suspended in modified HBSS (without Ca^2+ and Mg^2+, with 10 mM Hepes, pH 7.4, Sigma) at a concentration of 5×10^7/ml. Prior to addition of PMN, T84 monolayers were extensively rinsed in HBSS to remove residual serum components. Migration assays were performed by the addition of PMN (40 μl) to HBSS ([…]) in the upper chambers after chemoattractant (1 μM fMLP in HBSS) was added to the opposing (lower) chambers. Unless otherwise indicated, PMN were not washed free of LXA4 prior to addition to monolayers, and therefore, a five-fold dilution of lipoxin was present during the migration assay. For apical-to-basolateral migration experiments, PMN (2×10^6) were added at time 0. Migration in the basolateral-to-apical direction, while qualitatively similar, is substantially more efficient than in the apical-to-basolateral direction. (Parkos C. A., et al. (1991). J. Clin. Invest. 88: 1605-1612). Therefore, 5-fold fewer PMN (4×10^5) were added when migration proceeded in the basolateral-to-apical direction in order that baseline migration signals be approximately equivalent in both directions. (Parkos C. A., et al. (1991). J. Clin. Invest. 88: 1605-1612). Migration was allowed to proceed for 120 minutes, unless otherwise noted. All PMN transepithelial migration experiments were performed in a 37° C. room to ensure that epithelial monolayers, solutions, plasticware, etc., were maintained at uniform 37° C. temperature.
Migration was quantitated by assaying for the PMN azurophilic granule marker myeloperoxidase (MPO) as described previously (Parkos C. A., et al. (1991). J. Clin. Invest 88: 1605-1612). Following each migration assay, non-adherent PMN were extensively washed from the surface of the monolayer and PMN cell equivalents (PMN CE), estimated from a standard curve, were assessed as the number of PMN's associated with the monolayer, the number which had completely traversed the monolayer (ie. across the monolayer into the reservoir bath), as well as the total number of transmigrating PMN (the sum of monolayer and reservoir-associated PMN).
To investigate whether LXA4 could serve to stimulate PMN migration in this assay system, dilutions of LXA4 in the range of 0.01-10 nM were placed in the lower chamber of migration wells. Untreated PMN's were added to the upper chamber and assessed for chemotactic capacity toward LXA4 in the apical-to-basolateral direction. […]

[3] = test system: human PMN migration across T84 epithelial monolayers; test: Effect of inhibitors on baseline and LXA4-elicited PMN transepithelial migration, apical-to-basolateral; format: cell-based; details: for LXA4-elicited increase in fMLP driven PMN migration over control: LXA4 10 nM
[4] = biological target: lipoxin binding sites on human PMN; details: reported; cited from earlier work

CCCCC[C@H](O)/C=C/C=C\C=C\C=C\[C@@H](O)[C@@H](O)CCCC(=O)O (relative stereo) [LXA4, (5S, 6R, 15S)-trihydroxy-7,9,13-trans-11-cis-eicosatetraenoic acid]
total number of transmigrating PMN ([1]; T84 monolayers incubated with 10 nM LXA4 15 min 37°C, LXA4 not removed, untreated PMN, 1 μM fMLP): 15.7±1.8 ×10^4 PMN CE/ml | total number of transmigrating PMN ([1]; T84 monolayers incubated with 10 nM LXA4 15 min, LXA4 removed by washing thrice with HBSS before PMN): 14.3±1.1 ×10^4 PMN CE/ml | PMN migration toward LXA4, % of fMLP-induced PMN migration ([2]; 0.01 nM LXA4 in lower chamber): 6±2.1% | PMN migration toward LXA4, % of fMLP-induced PMN migration ([2]; 0.1 nM LXA4 in lower chamber): 9±3.6% | PMN migration toward LXA4, % of fMLP-induced PMN migration ([2]; 1.0 nM LXA4 in lower chamber): 6±2.4% | PMN migration toward LXA4, % of fMLP-induced PMN migration ([2]; 10 nM LXA4 in lower chamber): 12±1.4% | LXA4-elicited increase in fMLP driven PMN migration over control ([3]; PMN pre-exposed to indomethacin 50 μM): 61±11% | LXA4-elicited increase in fMLP driven PMN migration over control ([3]; without indomethacin): 54±7% | LXA4-elicited increase in PMN migration compared to control ([3]; LXA4 10 μM (so in the source), pertussis toxin experiment): 46±3% | Kd [4]: 0.5 nM
